Data taken from paper PMC5933782, “Molecular structures of cdc2-like kinases in complex with a new inhibitor chemotype” (PLoS ONE, 2018).

Assays:
[1] = test system: BT-549; experiment: NCI cancer cell line screening; format: cell-based; settings: Homo sapiens; BT-549, Breast Cancer
Experimental: (§1) Being the most promising compound in terms of CLK1 inhibitory potency and selectivity, KuWal151 (8c) was tested in the National Cancer Institute cancer cell line screening on 57 tumor cell lines of different tissue origin [45]. With only a few exceptions, KuWal151 inhibited the growth of most cell lines in submicromolar concentrations. In Table 2 the cancer cell line inhibition data is listed with the expression rates of SPF45 and CLK1 as indicated in the Expression Atlas database (https://www.ebi.ac.uk/gxa/home). Apparently the cell lines with high levels of CLK1 encoding RNA are inhibited over average. […] However, the available data are not sufficient to construe a clear relationship between the expression levels of the putative target CLK1 and sensitivity of the cell lines against 8c. The same holds true for SPF45, an important substrate of CLK1 involved in splicing which is found to be overexpressed in many cancer cell lines. […] The lack of a straight relationship between CLK1 and/or SPF45 expression levels on the one hand and sensitivity against the CLK1 inhibitor 8c on the other hand may have various reasons, e.g. different uptake rates of the inhibitor by the cells or alternative intracellular targets. For verification of the results from the NCI screening, which is based on the in situ fixation of cells followed by staining with the protein-binding dye sulforhodamin B [47, 48], 8c was also tested on two cell lines of the NCI panel (HT-29 and MDA-MB-231) in a crystal violet assay.

[2] = test system: HT29; experiment: NCI cancer cell line screening; format: cell-based; settings: Homo sapiens, HT-29; HT29, Colon Cancer
Experimental: as §1

[3] = test system: IGROV1; experiment: NCI cancer cell line screening; format: cell-based; settings: Homo sapiens, IGROV-1; IGROV1, Ovarian Cancer
Experimental: as §1

[4] = test system: MDA-MB-231/ATCC; experiment: NCI cancer cell line screening; format: cell-based; settings: Homo sapiens, Breast Cancer
Experimental: as §1

[5] = test system: MOLT-4; experiment: NCI cancer cell line screening; format: cell-based; settings: Homo sapiens; MOLT-4, Leukemia
Experimental: as §1

[6] = test system: NCI-H460; experiment: NCI cancer cell line screening; format: cell-based; settings: Homo sapiens; NCI-H460, Non-Small Cell Lung Cancer
Experimental: as §1

[7] = test system: NCI-H522; experiment: NCI cancer cell line screening; format: cell-based; settings: Homo sapiens; NCI-H522, Non-Small Cell Lung Cancer
Experimental: as §1

[8] = test system: OVCAR-5; experiment: NCI cancer cell line screening; format: cell-based; settings: Homo sapiens; OVCAR-5, Ovarian Cancer
Experimental: as §1

[9] = test system: OVCAR-8; experiment: NCI cancer cell line screening; format: cell-based; settings: Homo sapiens; OVCAR-8, Ovarian Cancer
Experimental: as §1

[10] = test system: SF-268; experiment: NCI cancer cell line screening; format: cell-based; settings: Homo sapiens; SF-268, CNS Cancer
Experimental: as §1

[11] = test system: SF-295; experiment: NCI cancer cell line screening; format: cell-based; settings: Homo sapiens; SF-295, CNS Cancer
Experimental: as §1

[12] = test system: SF-539; experiment: NCI cancer cell line screening; format: cell-based; settings: Homo sapiens; SF-539, CNS Cancer
Experimental: as §1

[13] = test system: SK-MEL-2; experiment: NCI cancer cell line screening; format: cell-based; settings: Homo sapiens; SK-MEL-2, Melanoma
Experimental: as §1

[14] = test system: SK-MEL-5; experiment: NCI cancer cell line screening; format: cell-based; settings: Homo sapiens; SK-MEL-5, Melanoma
Experimental: as §1

[15] = test system: SK-OV-3; experiment: NCI cancer cell line screening; format: cell-based; settings: Homo sapiens; SK-OV-3, Ovarian Cancer
Experimental: as §1

[16] = test system: SN12C; experiment: NCI cancer cell line screening; format: cell-based; settings: Homo sapiens, Renal Cancer
Experimental: as §1

[17] = test system: SR; experiment: NCI cancer cell line screening; format: cell-based; settings: Homo sapiens, Leukemia
Experimental: as §1

[18] = test system: SW-620; experiment: NCI cancer cell line screening; format: cell-based; settings: Homo sapiens; SW-620, Colon Cancer
Experimental: as §1

[19] = test system: T-47D; experiment: NCI cancer cell line screening; format: cell-based; settings: Homo sapiens, T47D, Breast Cancer
Experimental: as §1

[20] = test system: TK-10; experiment: NCI cancer cell line screening; format: cell-based; settings: Homo sapiens; TK-10, Renal Cancer
Experimental: as §1

[21] = test system: HT-29 colon carcinoma cells; experiment: crystal violet proliferation assay; format: cell-based; settings: Homo sapiens, 72 h exposure, triplicate
Experimental: (§2) For experiments with RC-124 cells, microtiter plates had been pretreated in the following way: 30 μL of a sterilized gelatine solution (1.5% (m/V)) were added to each well of flat bottom 96-well plates, the plates were covered with their lids, incubated for 1h at 37°C, the excess solution was removed, the wells were washed with PBS 7.4 pH, and the new cell-culture medium was added.
(§3) The antiproliferative effects were determined according to a routinely used method. In short: a volume of 100 μL of HT-29 cells (2565 cells/mL), MDA-MB-231 cells (4120 cells/mL), MCF-7 cells (4840 cells/mL) or RC-124 cells (1460 cells/mL) was transferred into the wells of 96-well plates (note: for RC-124 pretreated plates were used, see above) and incubated at 37°C/5% CO2 for 72 h (MCF-7, MDA-MB-231, RC-124) or 48 h (HT-29). Stock solutions of 8c in DMSO were prepared and diluted with the respective cell culture medium to graded concentrations (final concentration of […]: 0.1% v/v). […] Results were calculated as the mean values of three independent experiments.

[22] = test system: MCF-7 breast carcinoma cells; experiment: crystal violet proliferation assay; format: cell-based; settings: Homo sapiens, MCF7, 96 h exposure, duplicate
Experimental: as §2, §3

[23] = test system: MDA-MB-231 breast cancer cells; experiment: crystal violet proliferation assay; format: cell-based; settings: Homo sapiens, 96 h exposure, triplicate
Experimental: as §2, §3

[24] = test system: RC-124 healthy human kidney cells; experiment: crystal violet proliferation assay; format: cell-based; settings: 96 h exposure, triplicate
Experimental: as §2, §3

[25] = biological target: CDK9/cyclin T (Homo sapiens, UniProt P50750); experiment: radiometric protein kinase assay
Experimental: (§4) Buffers. Buffer A: 10 mM MgCl2, 1 mM EGTA, 1 mM DTT, 25 mM Tris-HCl pH 7.5, 50 μg heparin/mL. Buffer C: 60 mM β-glycerophosphate, 15 mM p-nitrophenylphosphate, 25 mM MOPS (pH 7.2), 15 mM EGTA, 15 mM MgCl2, 1 mM DTT, 1 mM sodium vanadate, 1 mM phenylphosphate.
(§5) Kinase activities were assayed in buffer A or C at 30°C at a final ATP concentration of 15 μmol/L. Blank values were subtracted and activities were expressed in percent of the maximal activity, i.e. in the absence of inhibitors. Controls were performed with appropriate dilutions of DMSO.
(§6) Their kinase activity was assayed in buffer A, with 1 mg histone H1/mL, in the presence of 15 μmol/L [γ-33P] ATP (3,000 Ci/mmol; 10 mCi/mL) in a final volume of 30 μL. After 30 min incubation at 30°C, the reaction was stopped by harvesting onto P81 phosphocellulose supernatant (Whatman) using a FilterMate harvester (Packard) and washing in 1% phosphoric acid. Scintillation fluid was added and the radioactivity measured in a Packard counter.
(§7) All data points for construction of dose response curves were recorded in triplicate.

[26] = biological target: CLK1 (Mus musculus, UniProt P22518); experiment: radiometric protein kinase assay
Experimental: Buffer A: 10 mM MgCl2, 1 mM EGTA, 1 mM DTT, 25 mM Tris-HCl pH 7.5, 50 μg heparin/mL. Buffer C: 60 mM β-glycerophosphate, 15 mM p-nitrophenylphosphate, 25 mM MOPS (pH 7.2), 15 mM EGTA, 15 mM MgCl2, 1 mM DTT, 1 mM sodium vanadate, 1 mM phenylphosphate.
Controls were performed with appropriate dilutions of DMSO. The GS-1, CKS, CDK7/9 tide and RS peptide substrates were obtained from Proteogenix (Oberhausbergen, France).
CDK1/cyclin B (M phase starfish oocytes, native), CDK2/cyclin A and CDK5/p25 (human, recombinant) were prepared as previously described [33]. […] ATP (3,000 Ci/mmol; 10 mCi/mL) in a final volume of 30 μL. After 30 min incubation at 30°C, the reaction was stopped by harvesting onto P81 phosphocellulose supernatant (Whatman) using a FilterMate harvester (Packard) and washing in 1% phosphoric acid. Scintillation fluid was added and the radioactivity measured in a Packard counter.
as §7

[27] = biological target: CLK2 (Mus musculus, UniProt O35491); experiment: radiometric protein kinase assay
Experimental: as §4, §5, §6, §7

[28] = biological target: CLK3 (Mus musculus, UniProt O35492); experiment: radiometric protein kinase assay
[29] = biological target: CLK4 (Mus musculus, UniProt O35493); experiment: radiometric protein kinase assay
Sequence of CLK4 (O35493 whole entry): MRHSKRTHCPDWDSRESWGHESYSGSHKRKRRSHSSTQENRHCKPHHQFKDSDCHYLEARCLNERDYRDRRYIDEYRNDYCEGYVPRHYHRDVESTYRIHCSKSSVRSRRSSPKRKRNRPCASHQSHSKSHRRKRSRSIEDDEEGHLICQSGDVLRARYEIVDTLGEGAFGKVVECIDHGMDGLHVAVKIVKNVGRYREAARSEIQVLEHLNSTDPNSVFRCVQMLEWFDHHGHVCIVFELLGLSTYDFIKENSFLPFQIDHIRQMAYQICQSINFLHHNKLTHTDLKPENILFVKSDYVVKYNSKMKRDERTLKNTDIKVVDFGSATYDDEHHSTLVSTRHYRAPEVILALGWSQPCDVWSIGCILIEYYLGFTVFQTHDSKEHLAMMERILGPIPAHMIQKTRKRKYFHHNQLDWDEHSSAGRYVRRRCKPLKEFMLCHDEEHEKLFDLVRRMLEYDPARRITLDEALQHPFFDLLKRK
Experimental: as §4, §5, §6, §7

Sequence of CLK1 (P22518 whole entry): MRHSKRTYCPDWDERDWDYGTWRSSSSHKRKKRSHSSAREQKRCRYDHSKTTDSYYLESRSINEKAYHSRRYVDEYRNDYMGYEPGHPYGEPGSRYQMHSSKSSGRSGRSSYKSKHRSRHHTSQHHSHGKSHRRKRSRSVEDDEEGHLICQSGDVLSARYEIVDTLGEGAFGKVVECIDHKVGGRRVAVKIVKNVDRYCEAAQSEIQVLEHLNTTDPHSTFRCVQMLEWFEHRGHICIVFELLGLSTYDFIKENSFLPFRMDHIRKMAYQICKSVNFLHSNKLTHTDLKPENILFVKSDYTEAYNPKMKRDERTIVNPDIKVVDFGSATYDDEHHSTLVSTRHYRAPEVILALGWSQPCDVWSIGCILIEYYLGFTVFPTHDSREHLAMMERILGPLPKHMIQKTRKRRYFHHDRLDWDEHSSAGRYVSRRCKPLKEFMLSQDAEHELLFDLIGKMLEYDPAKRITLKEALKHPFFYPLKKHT
Sequence of CDK9/cyclin T (P50750 whole entry): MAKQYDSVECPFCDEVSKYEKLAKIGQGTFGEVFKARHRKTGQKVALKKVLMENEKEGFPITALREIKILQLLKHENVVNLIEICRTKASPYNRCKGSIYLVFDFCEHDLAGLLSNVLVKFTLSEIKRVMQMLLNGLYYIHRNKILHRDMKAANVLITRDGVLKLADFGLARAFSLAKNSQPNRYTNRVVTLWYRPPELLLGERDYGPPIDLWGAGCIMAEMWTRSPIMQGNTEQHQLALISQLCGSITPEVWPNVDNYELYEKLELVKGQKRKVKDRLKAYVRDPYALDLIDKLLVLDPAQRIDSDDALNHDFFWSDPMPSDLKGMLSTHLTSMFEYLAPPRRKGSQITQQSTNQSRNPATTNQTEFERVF
Sequence of CDK9/cyclin T (O60563 whole entry partner): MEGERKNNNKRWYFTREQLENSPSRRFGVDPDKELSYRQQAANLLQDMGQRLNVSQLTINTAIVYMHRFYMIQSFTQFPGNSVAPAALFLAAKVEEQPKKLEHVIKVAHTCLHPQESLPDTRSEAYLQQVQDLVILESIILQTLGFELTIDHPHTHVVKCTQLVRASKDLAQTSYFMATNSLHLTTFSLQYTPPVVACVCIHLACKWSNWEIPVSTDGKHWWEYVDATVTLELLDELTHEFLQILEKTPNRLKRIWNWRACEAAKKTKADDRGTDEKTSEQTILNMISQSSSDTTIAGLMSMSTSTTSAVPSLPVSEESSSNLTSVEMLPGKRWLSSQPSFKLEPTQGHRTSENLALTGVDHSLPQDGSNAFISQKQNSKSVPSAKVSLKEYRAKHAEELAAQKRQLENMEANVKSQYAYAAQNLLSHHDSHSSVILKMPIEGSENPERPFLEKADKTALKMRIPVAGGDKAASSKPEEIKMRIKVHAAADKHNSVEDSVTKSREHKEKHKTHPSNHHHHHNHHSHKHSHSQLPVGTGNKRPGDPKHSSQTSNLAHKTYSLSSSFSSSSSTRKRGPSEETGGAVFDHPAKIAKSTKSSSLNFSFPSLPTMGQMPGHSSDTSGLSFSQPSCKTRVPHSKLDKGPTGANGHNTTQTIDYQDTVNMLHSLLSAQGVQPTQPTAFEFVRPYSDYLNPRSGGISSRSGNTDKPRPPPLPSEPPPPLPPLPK
Sequence of CLK2 (O35491 whole entry): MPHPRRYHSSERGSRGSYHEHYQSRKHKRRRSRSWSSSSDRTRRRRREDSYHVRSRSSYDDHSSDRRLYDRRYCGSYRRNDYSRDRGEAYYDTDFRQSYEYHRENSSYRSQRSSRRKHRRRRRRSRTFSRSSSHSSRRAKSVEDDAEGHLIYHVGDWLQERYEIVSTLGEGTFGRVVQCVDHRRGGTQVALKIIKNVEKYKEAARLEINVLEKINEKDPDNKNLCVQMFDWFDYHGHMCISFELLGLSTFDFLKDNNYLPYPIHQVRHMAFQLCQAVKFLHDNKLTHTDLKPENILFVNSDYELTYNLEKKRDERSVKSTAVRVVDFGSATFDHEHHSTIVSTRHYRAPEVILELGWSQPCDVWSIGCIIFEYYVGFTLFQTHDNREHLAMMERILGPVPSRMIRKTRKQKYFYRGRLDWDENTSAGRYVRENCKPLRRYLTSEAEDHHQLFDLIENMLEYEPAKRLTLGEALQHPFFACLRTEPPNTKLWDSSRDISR
Sequence of CLK3 (O35492 whole entry): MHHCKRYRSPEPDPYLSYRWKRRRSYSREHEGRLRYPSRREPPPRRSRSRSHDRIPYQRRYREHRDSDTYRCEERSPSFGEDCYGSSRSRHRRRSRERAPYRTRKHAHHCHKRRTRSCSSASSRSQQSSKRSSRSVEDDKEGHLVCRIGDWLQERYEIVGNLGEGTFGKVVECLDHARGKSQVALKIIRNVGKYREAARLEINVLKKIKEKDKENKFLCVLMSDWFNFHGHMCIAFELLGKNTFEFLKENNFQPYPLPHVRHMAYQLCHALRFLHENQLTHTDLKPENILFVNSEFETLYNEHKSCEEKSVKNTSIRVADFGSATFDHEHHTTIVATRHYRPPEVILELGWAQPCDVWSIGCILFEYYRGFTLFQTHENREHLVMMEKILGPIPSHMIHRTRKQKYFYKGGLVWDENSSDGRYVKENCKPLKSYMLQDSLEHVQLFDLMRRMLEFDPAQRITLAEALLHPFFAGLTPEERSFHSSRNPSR

**Q.** Which GI50 [1] does the source give for `O=C1NCc2ccc3c(-c4cccc(Cl)c4)c[nH]c3c21` [8c, 3-(3-Chlorophenyl)-6,7-dihydropyrrolo[3,4-g]indol-8(1H)-one] here?
**A.** Its GI50 is 204 nM.

**Q.** What about the GI50 [2] of the same molecule?
**A.** Its GI50 is 174 nM.

**Q.** And the GI50 [3]?
**A.** The GI50 was 427 nM.

**Q.** What about the GI50 [4] of the same molecule?
**A.** The GI50 was 1380 nM.

**Q.** And the GI50 [5]?
**A.** The GI50 was 257 nM.

**Q.** What about the GI50 [6] of the same molecule?
**A.** Its GI50 is 209 nM.

**Q.** What about the GI50 [7] of the same molecule?
**A.** The GI50 was 158 nM.

**Q.** What about the GI50 [8] of the same molecule?
**A.** The GI50 was 1250 nM.

**Q.** What about the GI50 [9] of the same molecule?
**A.** The GI50 was 724 nM.

**Q.** And the GI50 [10]?
**A.** Its GI50 is 437 nM.

**Q.** And the GI50 [11]?
**A.** The GI50 was 224 nM.

**Q.** What about the GI50 [12] of the same molecule?
**A.** The GI50 was 166 nM.

**Q.** What about the GI50 [13] of the same molecule?
**A.** Its GI50 is 316 nM.

**Q.** What about the GI50 [14] of the same molecule?
**A.** The GI50 was 407 nM.

**Q.** What about the GI50 [15] of the same molecule?
**A.** Its GI50 is 275 nM.

**Q.** And the GI50 [16]?
**A.** Its GI50 is 331 nM.

**Q.** What about the GI50 [17] of the same molecule?
**A.** The GI50 was 151 nM.

**Q.** And the GI50 [18]?
**A.** Its GI50 is 209 nM.

**Q.** And the GI50 [19]?
**A.** The GI50 was 309 nM.

**Q.** And the GI50 [20]?
**A.** The GI50 was 10200 nM.

**Q.** And the GI50 [21]?
**A.** Its GI50 is 120 ± 10 nM.

**Q.** What about the GI50 [22] of the same molecule?
**A.** The GI50 was 350 ± 160 nM.

**Q.** What about the GI50 [23] of the same molecule?
**A.** Its GI50 is 280 ± 50 nM.

**Q.** And the GI50 [24]?
**A.** The GI50 was 440 ± 100 nM.

**Q.** What about the IC50 [25] of the same molecule?
**A.** The IC50 was > 10000 nM.

**Q.** What about the IC50 [26] of the same molecule?
**A.** The IC50 was 88 nM.

**Q.** What about the IC50 [27] of the same molecule?
**A.** Its IC50 is 510 nM.

**Q.** And the IC50 [28]?
**A.** The IC50 was > 10000 nM.

**Q.** And the IC50 [29]?
**A.** Its IC50 is 28 nM.
